From ChEMBL document CHEMBL1128163, “Synthesis and biological evaluation of 4-heterotribactams” (Bioorg Med Chem Lett, 1995)
Calls of active or inactive are those of the source. No cut-off for these calls is given here.

What was measured:
Format in all cases: functional, organism-based
Pseudomonas aeruginosa [1] = test: Tested for broad spectrum antibacterial activity against Pseudomonas aeruginosa; A - active compound
Escherichia coli [2] = test: Antibacterial activity against Escherichia coli 851 at 16 ug/mL concentration; A - low activity was observed
Pseudomonas aeruginosa [3] = test: Antibacterial activity against Pseudomonas aeruginosa at concentrations >32 ug/mL; inactive
Staphylococcus aureus [4] = test: Antibacterial activity against sensitive strains of Staphylococcus aureus at 2-32 ug/mL concentration; A - weak activity was observed
Staphylococcus aureus [5] = test: Antibacterial activity against resistant strains of Staphylococcus aureus at 2-32 ug/mL concentration; A - weak activity was observed
Escherichia coli [6] = test: Antibacterial activity against Escherichia coli 1852-PM strain at 16 ug/mL concentration; A - low activity was observed
[7] = test system: Staphylococcus epidermidis; test: Antibacterial activity against Staphylococcus epidermidis at 2 ug/mL concentration; A - weak activity was observed
Escherichia coli [8] = test: Antibacterial activity against Escherichia coli 1850-WT strain at 16 ug/mL concentration; A - low activity was observed
Streptococcus pneumoniae = test: Antibacterial activity against Streptococcus pneumoniae at a concentration of 2 ug/mL; A - weak activity was observed
Escherichia coli [9] = test: Antibacterial activity against Escherichia coli 1919-PM/TEM-1 strains at a concentration of at 16 ug/mL concentration; A - low activity was observed

Row | SMILES | Activity (Pseudomonas aeruginosa [1]) | Activity (Escherichia coli [2]) | Activity (Pseudomonas aeruginosa [3]) | Activity (Staphylococcus aureus [4]) | Activity (Staphylococcus aureus [5]) | Activity (Escherichia coli [6]) | Activity [7] | Activity (Escherichia coli [8]) | Activity (Streptococcus pneumoniae) | Activity (Escherichia coli [9])
1 | C[C@@H](O)[C@H]1C(=O)N2C(C(=O)O)=C(S[C@@H]3CN[C@H](C(=O)N(C)C)C3)[C@H](C)[C@H]12 | Low activity |  |  |  |  |  |  |  |  | 
2 | C[C@@H](O)[C@H]1C(=O)N2C(C(=O)O)=C(SCCN)C[C@H]12 | Low activity |  |  |  |  |  |  |  |  | 
3 | C[C@@H](O)[C@H]1C(=O)N2C(C(=O)O)=C3SCC[C@H]3[C@H]12 |  | Low activity | inactive | Low activity | Low activity | Low activity | Low activity | Low activity | Low activity | Low activity
